Consider two molecules from patent US11241448B2, “Methods for cancer therapy” (Millennium Pharmaceuticals, Inc., priority 2014, dated 2022).

For series [1] the following is noted: upon contact with either plasma or aqueous solutions; cited from earlier work.
Series [2] deals with β5 proteasome (Homo sapiens, UniProt P28074). As to conditions: in contrast to bortezomib; cited from earlier work.
The target in series [3] is β1 site of the 20S proteasome (Homo sapiens, UniProt P28072). As to conditions: at higher concentrations; cited from earlier work.
In series [4] the test system is tumor xenografts. As to conditions: in contrast to bortezomib; cited from earlier work.
Series [5] relates to multiple myeloma patients who completed induction therapy. The series can be described thus: Clinical study of oral single-agent ixazomib maintenance therapy. In kind it is in vivo, human. An excerpt: These patients completed induction therapy and progressed to the maintenance phase.
In series [6] the target is receptors. To be noted: read-out: IC50 values against receptors; cited from earlier work.
For series [7] the following is noted: in contrast to bortezomib; cited from earlier work.
Series [8] deals with β2 site of the 20S proteasome (Homo sapiens, UniProt Q99436). As to conditions: at higher concentrations; cited from earlier work.
In series [9] the test system is kinases. To be noted: read-out: IC50 values against kinases; cited from earlier work.
In series [10] the test system is patients with relapsed, refractory multiple myeloma. The series can be described thus: Exposure-response logistic regression analyses, phase 1 study of weekly single-agent ixazomib. Type of series: in vivo, human. To be noted: starting dose 3.0 mg weekly. An excerpt:
The methods and results of these analyses are described below.
The metric of exposure (Ex) was AUC per day (derived from individual clearance values using population pharmacokinetics) for both exposure logistic regression analyses Ex/S and Ex/E. Ex/S analysis was done on seven adverse events (AEs): non-hematologic (non-H) (fatigue, rash, peripheral neuropathy, diarrhea) and hematologic (H) (anemia, thrombocytopenia, neutropenia). The non-hematologic adverse events data were categorized into grade≥2 vs. grade≤1 groups while hematologic adverse events data were grouped into grade≥3 vs. grade≤2. The data were categorized in this way as maintenance treatment should have a tolerable adverse events profile and contribute to acceptable quality of life. Different cut-offs were used for hematologic and non-hematologic adverse events because grade 3 hematologic adverse events may have less impact on quality of life and be more manageable than grade 2 non-hematologic adverse events such as diarrhea. For exposure efficacy (Ex/E), data were categorized as: ≥stable disease (SD) vs. progressive disease (PD). Clinical benefit rate including SD achieved in relapsed or refractory patients may be a meaningful predictor of expected response in a maintenance setting. The logistic regression analyses were done using SPLUS software version 8.1.

Series [11] relates to patients with advanced solid tumors, lymphoma, RRMM, and relapsed or refractory AL amyloidosis. To be noted: cited from earlier work.
The mark [12] stands for this setting: of 10 patients who improved during maintenance.

pIC50: −log10 of the molar value. Where a name gives a salt, the structure may show the parent alone.

`CC(C)C[C@H](NC(=O)CNC(=O)c1cc(Cl)ccc1Cl)B1OC(=O)C(CC(=O)O)(CC(=O)O)O1` [ixazomib citrate]: the hydrolysis to ixazomib result in series [1] was “rapidly hydrolyzes”.

For `CC(C)C[C@H](NC(=O)CNC(=O)c1cc(Cl)ccc1Cl)B(O)O` [ixazomib], the “dissociation rate from the proteasome” value in series [2] was “faster dissociation rate”. For the same molecule, in [3], the “inhibition of activity of the β1 site” value was “also inhibits the activity”. Also, the “antitumor activity in tumor xenografts” value in series [4] was “antitumor activity in a broader range of tumor xenografts”. Besides, the “survival of patients who received maintenance” value in series [5] (after follow-up of 25.1-33.9 months) is “alive”. In series [5] (n=21, maintenance therapy), the “best overall response: complete response (CR) or better, percent of patients” value turned out to be 52% and the “best overall response: very good partial response (VGPR) or better, percent of patients” value is on record as 71%. In series [5] (n=21, range 6.7-31.18), the “median duration of response” value is 21.65 months. Also, in series [5] (setting [12]), the “improved response CR to sCR, patients” value was 2/10; the “improved response VGPR to CR, patients” value is given as 5/10; the “improved response VGPR to near-CR (nCR), patients” value is given as 2/10; the “improved response VGPR to stringent complete response (sCR), patients” value was 1/10. Also, in series [5] (range 0.92-5.78), the “median time to first response (≥rapid response “PR”)” value was determined as 0.99 months. Further, the “median time to best response” value in [5] (range 1.02-24.74) was 7.46 months. Further, in series [6], the pIC50 is less than 5.00. Also, the tissue penetration result in series [7] is “more prolonged tissue penetration”. Moreover, in series [8], the “inhibition of activity of the β2 site” value is given as “also inhibits the activity”. Besides, the pIC50 in series [9] is less than 5.00. In [10], the “model-predicted clinical benefit rate (≥SD)” value is approximately 33%, the “model-predicted incidence of grade≥2 diarrhea” value was 19%, the “model-predicted incidence of grade≥2 fatigue” value was 19% and the “model-predicted incidence of grade≥2 rash” value is given as 16%. In addition, in series [10], the “model-predicted incidence of grade≥3 neutropenia” value was 10% and the “model-predicted incidence of grade≥3 thrombocytopenia” value is reported as 22%. Further, the clinical activity result in series [11] (advanced solid tumors, lymphoma, RRMM, AL amyloidosis) is recorded as “early signs of activity”. Also, in [11] (clinical studies), the “emerging safety profile / tolerability” value is listed as “generally well tolerated” and the toxicity profile entry is recorded as “favorable toxicity profile with low rates of peripheral neuropathy”.

What is called pIC50 is the IC50 on a negative log10 scale, so that one unit is a factor of ten.
